Counter-ions that a name gives are not always drawn. Like-named read-outs stand apart in the source and are kept apart here.
Tested on: Human prostate PC3 tumor cells
Test: aFGF/bFGF-induced resistance and reversal by suramin, sulforhodamine B assay
Type: cell-based
Details: for Resistance, Folds, aFGF 0.3 ng/ml + bFGF 1 ng/ml / Resistance, Folds, aFGF 1 ng/ml + bFGF 3 ng/ml: no suramin, relative to control
Experimental: The experimental conditions are described briefly below. […] Cell number was measured using the sulforhodamine B assay which measures the total protein concentration. […] The FGF-induced resistance was dependent on the FGF concentrations, with a higher resistance at higher FGF concentrations.

[1] = read-out: IC50, Control (drug treatment only, without FGF treatment), No suramin, drug 96 hours
[2] = read-out: IC50, Control (without FGF treatment), Suramin, 15 μM, drug 96 hours with 15 μM suramin
[3] = read-out: IC50, aFGF 0.3 ng/ml + bFGF 1 ng/ml, No suramin, FGF pretreatment 96 hours, drug 96 hours
[4] = read-out: IC50, aFGF 0.3 ng/ml + bFGF 1 ng/ml, With suramin, FGF pretreatment 96 hours, drug 96 hours with 15 micromolar suramin
[5] = read-out: IC50, aFGF 1 ng/ml + bFGF 3 ng/ml, No suramin, FGF pretreatment 96 hours, drug 96 hours
[6] = read-out: IC50, aFGF 1 ng/ml + bFGF 3 ng/ml, With suramin, FGF pretreatment 96 hours, drug 96 hours with 15 micromolar suramin
[7] = Homo sapiens, read-out: IC50, Control (drug treatment only, without FGF treatment), No suramin, drug 96 hours
[8] = Homo sapiens, read-out: IC50, aFGF 0.3 ng/ml + bFGF 1 ng/ml, No suramin, FGF pretreatment 96 hours, drug 96 hours
[9] = Homo sapiens, read-out: IC50, aFGF 1 ng/ml + bFGF 3 ng/ml, No suramin, FGF pretreatment 96 hours, drug 96 hours

Structure (SMILES) | Resistance, Folds, aFGF 0.3 ng/ml + bFGF 1 ng/ml [Folds] | Resistance, Folds, aFGF 1 ng/ml + bFGF 3 ng/ml [Folds] | IC50 [1] [nM] | IC50 [2] [nM] | IC50 [3] [nM] | IC50 [4] [nM] | IC50 [5] [nM] | IC50 [6] [nM] | IC50 [7] [nM] | IC50 [8] [nM] | IC50 [9] [nM]
Nc1ccn([C@@H]2O[C@H](CO)[C@@H](O)[C@@H]2O)c(=O)n1 [Cytarabine/Ara-C, Cytarabine] | 3.26 | 8.41 | 390 | 460 | 1270 | 420 | 3260 | 450 |  |  | 
Nc1nc(Cl)nc2c1ncn2[C@H]1C[C@H](O)[C@@H](CO)O1 [Cladribine] | 1.31 | 1.86 |  | 360 |  |  |  | 340 | 350 | 460 | 650
CCC1=C[C@@H]2CN(C1)Cc1c([nH]c3ccccc13)[C@@](C(=O)OC)(c1cc3c(cc1OC)N(C)[C@H]1[C@@](O)(C(=O)OC)[C@H](OC(C)=O)[C@]4(CC)C=CCN5CC[C@]31[C@@H]54)C2 [Vinorelbin] | 1.32 | 2.26 | 3.99 | 3.29 | 5.25 | 3.6 | 9.01 | 3.84 |  |  | 
COc1cc([C@@H]2c3cc4c(cc3[C@@H](O[C@@H]3O[C@@H]5CO[C@@H](C)O[C@H]5[C@H](O)[C@H]3O)[C@H]3COC(=O)[C@H]23)OCO4)cc(OC)c1O [Etoposide] | 1.27 | 1.85 |  | 1750 |  | 1600 |  | 1610 | 1840 | 2340 | 3400
O=C1c2c(O)ccc(O)c2C(=O)c2c(NCCNCCO)ccc(NCCNCCO)c21 [Mitoxantrone] | 1.83 | 2.94 |  | 160 |  |  |  |  | 180 | 330 | 530
CC[C@@]1(O)C(=O)OCc2c1cc1n(c2=O)Cc2cc3c(CN(C)C)c(O)ccc3nc2-1 [Topotecan] | 1.40 | 2.43 |  | 21.7 |  | 20.8 |  | 21 | 22.2 | 31.1 | 53.9
CC[C@]1(O)C[C@H]2CN(CCc3c([nH]c4ccccc34)[C@@](C(=O)OC)(c3cc4c(cc3OC)N(C=O)[C@H]3[C@@](O)(C(=O)OC)[C@H](OC(C)=O)[C@]5(CC)C=CCN6CC[C@]43[C@@H]65)C2)C1 [Vincristine] | 4.00 | 6.77 |  | 6.82 |  |  |  |  | 6.58 |  | 
CC[C@]1(O)C[C@@H]2CN(CCc3c([nH]c4ccccc34)[C@@](C(=O)OC)(c3cc4c(cc3OC)N(C)[C@H]3[C@@](O)(C(N)=O)[C@H](O)[C@]5(CC)C=CCN6CC[C@]43[C@@H]65)C2)C1 [Vindesine] |  |  |  | 0.35 |  | 0.37 |  | 0.43 | 0.39 | 0.53 | 0.82
NCCCNc1ccc2c3c(nn2CCNCCO)-c2c(O)ccc(O)c2C(=O)c13 [Piroxantrone Hydrochloride] | 2.38 | 3.77 |  | 320 |  | 330 |  | 280 | 340 | 810 | 1280

— patent US20040010001A1, “Methods and compositions for modulating cell proliferation and cell death” (priority 1999, published 2004)
